# Measurements from US20240190891A1, “PYRIDO OXAZINE AMINO DERIVATIVES AS ALK5 INHIBITORS” (CHIESI FARMACEUTICI S.P.A., priority 2020, published 2024).
# Target: T1, human ALK5 (Homo sapiens, UniProt P36897)
# T1 construct: human ALK5 (recombinant TGF β1 N-term GST-tagged, 80-end); GST (N); purchased
# T1 sequence (P36897 80-503 limits assumed): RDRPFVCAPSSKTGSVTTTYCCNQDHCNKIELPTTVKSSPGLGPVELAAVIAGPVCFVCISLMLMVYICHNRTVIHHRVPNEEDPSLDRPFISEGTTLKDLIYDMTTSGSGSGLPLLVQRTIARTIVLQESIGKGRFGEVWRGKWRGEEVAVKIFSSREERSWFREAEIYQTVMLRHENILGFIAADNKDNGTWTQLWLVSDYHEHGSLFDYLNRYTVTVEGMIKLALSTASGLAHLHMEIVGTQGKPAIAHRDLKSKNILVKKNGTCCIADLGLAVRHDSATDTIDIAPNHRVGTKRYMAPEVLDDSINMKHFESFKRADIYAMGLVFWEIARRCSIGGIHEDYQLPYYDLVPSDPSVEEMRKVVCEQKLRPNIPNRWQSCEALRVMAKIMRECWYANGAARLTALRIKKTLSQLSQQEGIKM
# Assay: ADP-GLO Kinases assay, inhibitory activity on ALK5
# Format: biochemical
# Conditions: Table 10; purified recombinant human ALK5 2.6 nM, ADP-Glo, 25° C., 150 min incubation
# Method: The enzymatic activity of compounds of the present invention was monitored measuring the formation of ADP using the ADP-GLO Kinases assay. Following the incubation of the purified enzyme, a substrate and ATP, the produced ADP was converted into ATP, which in turn was converted into light by Ultra-Glo Luciferase. The luminescent signal positively correlated with ADP amount and kinase activity. Briefly, the kinase reaction was performed by incubating 2.6 nM of the purified, commercially available human ALK5 (recombinant TGF β1 N-term GST-tagged, 80-end), a final concentration of TGFβ1 peptide 94.5 μM (Promega, T36-58) and ultra-pure ATP (Promega V915B). The ATP concentration was set at the Km value (concentration of substrate which permits the enzyme to achieve half maximal velocity (Vmax)) of ALK5 (5 μM). All reactions/incubations were performed at 25° C. Compound and ALK5 kinase were mixed and incubated for 15 mins. Reactions were initiated by addition of ATP at a final concentration in the assay of 0.83 μM. After an incubation of 150 min, the reaction was stopped, and ADP production detected with ADP-Glo kit according to manufacturer's indications. The assay was performed in 384-well format and was validated using a selection of reference compounds that was tested in 11 point concentration-response curve.
# Compounds of the examples C1, C2 and C3 were tested in the same in vitro assay described above.
row,Structure (SMILES),IC50
1,"Nc1cc(Nc2cc(-c3cc(Cl)ccc3F)nc3c2OCCN3)ccn1 [Example 3, N4-[6-(5-chloro-2-fluorophenyl)-2H,3H,4H-pyrido[3,2-b][1,4]oxazin-8-yl]pyridine-2,4-diamine]",1 to 5 nM
2,"CNC(=O)c1cc(Nc2cc(-c3cc(Cl)ccc3F)nc3c2OCCN3)ccn1 [Example 6, 4-{[6-(5-chloro-2-fluorophenyl)-2H,3H,4H-pyrido[3,2-b][1,4]oxazin-8-yl]amino}-N-methylpyridine-2-carboxamide]",5 to 10 nM
3,"O=C(NCCN1CCOCC1)c1cnccc1Nc1cc(-c2cc(Cl)ccc2F)nc2c1OCCN2 [Example 9, 4-{[6-(5-chloro-2-fluorophenyl)-2H,3H,4H-pyrido[3,2-b][1,4]oxazin-8-yl]amino}-N-[2-(morpholin-4-yl)ethyl]pyridine-3-carboxamide]",1 to 5 nM
4,"CN(C)CCNC(=O)c1cnccc1Nc1cc(-c2cc(Cl)ccc2F)nc2c1OCCN2 [Example 10, 4-{[6-(5-chloro-2-fluorophenyl)-2H,3H,4H-pyrido[3,2-b][1,4]oxazin-8-yl]amino}-N-[2-(dimethylamino)ethyl]pyridine-3-carboxamide]",< 1 nM
5,"Clc1cccc(-c2cc(Nc3ccncc3)c3c(n2)NCCO3)c1 [Example 15, N-[6-(3-chlorophenyl)-2H,3H,4H-pyrido[3,2-b][1,4]oxazin-8-yl]pyridin-4-amine]",1 to 5 nM
6,"O=C(O)c1cnccc1Nc1cc(-c2cc(Cl)ccc2F)nc2c1OCCN2 [Example 16, lithium 4-{[6-(5-chloro-2-fluorophenyl)-2H,3H,4H-pyrido[3,2-b][1,4]oxazin-8-yl]amino}pyridine-3-carboxylate]",< 1 nM
7,"COC(=O)c1cnccc1Nc1cc(-c2cc(Cl)ccc2F)nc2c1OCCN2 [Example 17, methyl 4-{[6-(5-chloro-2-fluorophenyl)-2H,3H,4H-pyrido[3,2-b][1,4]oxazin-8-yl]amino}pyridine-3-carboxylate]",< 1 nM
8,"Cc1cccc(-c2cc(Nc3ccncc3)c3c(n2)NCCO3)c1 [Example 18, N-[6-(3-methylphenyl)-2H,3H,4H-pyrido[3,2-b][1,4]oxazin-8-yl]pyridin-4-amine]",1 to 5 nM
9,"Fc1ccc(-c2cc(Nc3ccncc3)c3c(n2)NCCO3)cc1Cl [Example 19, N-[6-(3-chloro-4-fluorophenyl)-2H,3H,4H-pyrido[3,2-b][1,4]oxazin-8-yl]pyridin-4-amine]",5 to 10 nM
10,"CNCCNC(=O)c1cnccc1Nc1cc(-c2cc(Cl)ccc2F)nc2c1OCCN2 [Example 21, 4-{[6-(5-chloro-2-fluorophenyl)-2H,3H,4H-pyrido[3,2-b][1,4]oxazin-8-yl]amino}-N-[2-(methylamino)ethyl]pyridine-3-carboxamide]",< 1 nM
11,"O=C(NC1CCNCC1)c1cnccc1Nc1cc(-c2cc(Cl)ccc2F)nc2c1OCCN2 [Example 24, 4-{[6-(5-chloro-2-fluorophenyl)-2H,3H,4H-pyrido[3,2-b][1,4]oxazin-8-yl]amino}-N-(piperidin-4-yl)pyridine-3-carboxamide]",< 1 nM
12,"Fc1ccc(Cl)cc1-c1cc(Nc2ccnc3[nH]ncc23)c2c(n1)NCCO2 [Example 25, 6-(5-chloro-2-fluorophenyl)-N-{1H-pyrazolo[3,4-b]pyridin-4-yl}-2H,3H,4H-pyrido[3,2-b][1,4]oxazin-8-amine]",< 1 nM

# Further lines, results first:
row,IC50,Structure (SMILES)
1,< 1 nM,"Fc1ccc(Cl)cc1-c1cc(Nc2ccncc2)c2c(n1)NCCO2 [Example 1, N-[6-(5-chloro-2-fluorophenyl)-2H,3H,4H-pyrido[3,2-b][1,4]oxazin-8-yl]-pyridine-4-amine]"
2,< 1 nM,"CNC(=O)c1cnccc1Nc1cc(-c2cc(Cl)ccc2F)nc2c1OCCN2 [Example 2, 4-{[6-(5-chloro-2-fluorophenyl)-2H,3H,4H-pyrido[3,2-b][1,4]oxazin-8-yl]amino}-N-methylpyridine-3-carboxamide]"
3,5 to 10 nM,"Cc1csc(-c2cc(Nc3ccncc3)c3c(n2)NCCO3)n1 [Example 4, N-[6-(4-methyl-1,3-thiazol-2-yl)-2H,3H,4H-pyrido[3,2-b][1,4]oxazin-8-yl]pyridin-4-amine]"
4,5 to 10 nM,"Cc1cccc(-c2cc(Nc3ccncc3)c3c(n2)NCCO3)n1 [Example 5, N-[6-(6-methylpyridin-2-yl)-2H,3H,4H-pyrido[3,2-b][1,4]oxazin-8-yl]pyridin-4-amine]"
5,1 to 5 nM,"Nc1cnccc1Nc1cc(-c2cc(Cl)ccc2F)nc2c1OCCN2 [Example 7, N4-[6-(5-chloro-2-fluorophenyl)-2H,3H,4H-pyrido[3,2-b][1,4]oxazin-8-yl]pyridine-3,4-diamine]"
6,< 1 nM,"Cc1ccc(F)c(-c2cc(Nc3ccncc3)c3c(n2)NCCO3)c1 [Example 8, N-[6-(2-fluoro-5-methylphenyl)-2H,3H,4H-pyrido[3,2-b][1,4]oxazin-8-yl]pyridin-4-amine]"
7,1 to 5 nM,"Fc1ccccc1-c1cc(Nc2ccncc2)c2c(n1)NCCO2 [Example 11, N-[6-(2-fluorophenyl)-2H,3H,4H-pyrido[3,2-b][1,4]oxazin-8-yl]pyridin-4-amine]"
8,< 1 nM,"O=C(NCCN1CCNCC1)c1cnccc1Nc1cc(-c2cc(Cl)ccc2F)nc2c1OCCN2 [Example 12, 4-{[6-(5-chloro-2-fluorophenyl)-2H,3H,4H-pyrido[3,2-b][1,4]oxazin-8-yl]amino}-N-[2-(piperazin-1-yl)ethyl]pyridine-3-carboxamide]"
9,1 to 5 nM,"Clc1cccc(-c2cc(Nc3ccncc3)c3c(n2)NCCO3)n1 [Example 13, N-[6-(6-chloropyridin-2-yl)-2H,3H,4H-pyrido[3,2-b][1,4]oxazin-8-yl]pyridin-4-amine]"
10,1 to 5 nM,"Fc1ccc(F)c(-c2cc(Nc3ccncc3)c3c(n2)NCCO3)c1 [Example 14, N-[6-(2,5-difluorophenyl)-2H,3H,4H-pyrido[3,2-b][1,4]oxazin-8-yl]pyridin-4-amine]"
11,< 1 nM,"O=C(CCN1CCOCC1)Nc1cc(Nc2cc(-c3cc(Cl)ccc3F)nc3c2OCCN3)ccn1 [Example 20, N-(4-{[6-(5-chloro-2-fluorophenyl)-2H,3H,4H-pyrido[3,2-b][1,4]oxazin-8-yl]amino}pyridin-2-yl)-3-(morpholin-4-yl)propanamide]"
12,1 to 5 nM,"CC(C)NC(=O)c1cnccc1Nc1cc(-c2cc(Cl)ccc2F)nc2c1OCCN2 [Example 22, 4-{[6-(5-chloro-2-fluorophenyl)-2H,3H,4H-pyrido[3,2-b][1,4]oxazin-8-yl]amino}-N-(propan-2-yl)pyridine-3-carboxamide]"
13,< 1 nM,"O=C(NC1CC1)c1cnccc1Nc1cc(-c2cc(Cl)ccc2F)nc2c1OCCN2 [Example 23, 4-{[6-(5-chloro-2-fluorophenyl)-2H,3H,4H-pyrido[3,2-b][1,4]oxazin-8-yl]amino}-N-cyclopropylpyridine-3-carboxamide]"
14,5 to 10 nM,"Fc1ccc(-c2cc(Nc3ccncc3)c3c(n2)NCCO3)nc1 [Example 26, N-[6-(5-fluoropyridin-2-yl)-2H,3H,4H-pyrido[3,2-b][1,4]oxazin-8-yl]pyridin-4-amine]"
15,1 to 5 nM,"CN(C)CCOC(=O)c1cnccc1Nc1cc(-c2cc(Cl)ccc2F)nc2c1OCCN2 [Example 27, 2-(dimethylamino)ethyl 4-{[6-(5-chloro-2-fluorophenyl)-2H,3H,4H-pyrido[3,2-b][1,4]oxazin-8-yl]amino}pyridine-3-carboxylate]"
